Measurements from EPA's ToxValDB 9.5 (doi:10.2903/j.efsa.2011.1958).
Converted amounts (≈) assume the structure as drawn. “And” between values parts separate entries of the source, which are not always exact repeats. Identical values can stand only once.

Assays:
Typhlodromus pyri = test: LR50; higher = less toxic; settings: acute; duration: 48 hours; reproduction
Aphidius rhopalosiphi = test: LR50; higher = less toxic; settings: acute; duration: 7 days; reproduction
Oncorhynchus mykiss = settings: acute; duration: 96 hours; mortality
Tagia sp. = settings: acute; duration: 14 days; mortality
Anas platyrhynchos = settings: acute; oral; unspecified; mortality
Daphnia magna = settings: chronic/long-term; duration: 21 days; reproduction
Landoltia sp. = settings: acute; duration: 14 days; growth
Colinus virginianus = settings: acute, oral, mortality
Pimephales promelas = settings: chronic/long-term; duration: 28 days; growth
Apis mellifera = settings: acute; duration: 48 hours; oral; unspecified; mortality

CN(C)C(=O)Nc1cccc(C(F)(F)F)c1 [Fluometuron]
LR50 (Typhlodromus pyri): 28.9 g/ha
LR50 (Aphidius rhopalosiphi): 398 g/ha
LD50 (Rattus norvegicus; acute, oral, mortality): > 5000 mg/kg
NOAEL (Rattus norvegicus; chronic, duration: 104 weeks, hematological): 0.553 mg/kg-day
NOEL (Rattus norvegicus; developmental, development): 24 mg/kg-day
NOAEL (Rattus norvegicus; reproduction developmental, other): 0.8 mg/kg-day
LC50 (Oncorhynchus mykiss): 30 µg/mL (≈ 129 µM)
LC50 (Tagia sp.): 1000 mg/kg
LD50 (Anas platyrhynchos): 2970 mg/kg
NOEC (Daphnia magna): 6.6 mg/L
NOEC (Landoltia sp.): 0.185 mg/L
LC50 (Colinus virginianus; diet): > 1600 mg/kg and 4310 mg/kg
LD50 (Colinus virginianus): > 2150 mg/kg
NOEC (Pimephales promelas): 3.1 mg/L
LD50 (Apis mellifera): > 34 µg/piece
